Values of other authors as cited in US8329742B2, “Macrocyclic compounds useful as pharmaceuticals” (EISAI Co., Ltd., priority 2002, dated 2012).

How the values were obtained:
[1] = susceptible to enone isomerization in mouse and human plasma
[2] = biological target: Map/Erk kinase (MEK) (Homo sapiens, UniProt Q02750)
Chain of Map/Erk kinase (MEK) (Q02750 whole entry): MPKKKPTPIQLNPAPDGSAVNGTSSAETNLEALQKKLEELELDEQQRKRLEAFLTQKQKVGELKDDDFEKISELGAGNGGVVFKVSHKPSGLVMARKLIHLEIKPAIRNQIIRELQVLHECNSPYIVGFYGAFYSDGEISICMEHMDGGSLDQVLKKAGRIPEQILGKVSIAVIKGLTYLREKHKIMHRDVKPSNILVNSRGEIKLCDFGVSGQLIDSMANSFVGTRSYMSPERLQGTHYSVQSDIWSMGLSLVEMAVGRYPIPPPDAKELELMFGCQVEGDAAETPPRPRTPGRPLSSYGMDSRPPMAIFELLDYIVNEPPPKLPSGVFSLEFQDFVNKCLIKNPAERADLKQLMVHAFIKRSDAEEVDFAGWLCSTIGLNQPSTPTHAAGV

## COc1cc(O)c2c(c1)/C=C/C[C@H](O)[C@H](O)C(=O)/C=C\C[C@H](C)OC2=O [Compound F152]
[1]
  biological stability: biologically unstable
[2]
  inhibition of Map/Erk kinase (MEK): inhibit
